# Columns and labels:
# human GLP-1 receptor = molecular target: T1, human GLP-1 receptor (Homo sapiens, UniProt P43220); assay: GLP-1 receptor binding, displacement of 125I-GLP-1, low and high HSA; settings: 2% HSA versus 0.005% HSA
# T1 construct: host or cells: cell membrane preparation
# Procedure: For a receptor binding test in the presence of low-concentration HSA (0.005% (w/v)), 50 μL of assay buffer was added to each well of the assay plate. For a receptor binding test in the presence of high-concentration HSA (2% (w/v)), 50 μL of 8% (w/v) albumin stock solution was added to each well of the assay plate. […] In the presence of 0.005% HSA, all test compounds and the reference control were diluted to 2 μM with assay buffer, and then all samples were diluted in 4-fold serial gradient dilutions for a total of 10 concentration gradients. […] 25 μL of test compounds or reference control at different concentrations were added to the appropriate wells of the assay plate, respectively. Cell membrane protein aliquots were thawed and diluted to their working concentration (40 μg/mL), and 50 μL of the cell membrane-containing solution was added to each well of the assay plate. […] The assay plate was incubated at room temperature for 1 h. After the incubation, the reaction solution was collected on a GF/C filter plate using a cell collector, washed 6 times with a washing buffer, and dried in a drying oven at 50° C. for 1 h. 50 μL of scintillation solution was added and blocked, and the values were read using Microbeta2. IC50 values were calculated by the nonlinear regression analysis in the GraphPad Prism software and reported in nM. […]
# db/db mice [1] = assay: Single-dose study of blood glucose, food and water intake on db/db mice (Example 15); assay type: in vivo; settings: single s.c. 100 μg/kg
# Procedure: Male db/db (BKS/Lepr) mice aged 8-9 weeks were housed in appropriately sized feeding cages in a barrier environment and had free access to standard food and purified water, with environmental conditions controlled at 40%-60% RH and 22-24° C. After an adaptation period of 1-2 weeks, the mice were used in the experiment.
# Before the start of the experiment on the day, the mice were evaluated for baseline blood glucose at about 9:00 a.m. and weighed.
# The GLP-1 derivatives were dissolved in the vehicle to an administration concentration of 20 μg/mL, and the administration was performed once by subcutaneous injection (s.c., 50 μL/10 g body weight) at back of the neck. The compound of Example 2 was administered at about 10:00 a.m. (time 0), and the blood glucose of the mice was evaluated 1 h, 2 h, 3 h, 6 h, 12 h, 24 h, 48 h and 72 h after the administration. The tail of each mouse was cleaned with an alcohol cotton ball, and blood drops were collected from the tail using a disposable blood collection needle and measured with a glucometer (Roche) and accompanying testing strips. Meanwhile, the food intake and water intake of the mice were monitored every day.
# The dose-response curve of blood glucose versus time, the dose-response curve of food intake versus time, and the dose-response curve of water intake versus time were plotted for each single dose of GLP-1 derivative. […]
# db/db mice [2] = assay: Single-dose pharmacodynamic study on db/db mice (Example 5); assay type: in vivo; settings: single s.c. 100 μg/kg
# Procedure: The title compounds of Examples 1-4 and Comparative Examples 1-4 (also known as GLP-1 derivatives) were tested in a single dose study on an obese mouse model (db/db mice) with type 2 diabetes (T2DM). The hypoglycemic drug effect of the GLP-1 derivatives was tested at a dose of 100 μg/kg.
# Male db/db (BKS/Lepr) mice aged 8-9 weeks were housed in appropriately sized feeding cages in a barrier environment and had free access to standard food and purified water, with environmental conditions controlled at 40%-60% relative humidity (RH) and 22-24° C. After an adaptation period of 1-2 weeks, the mice were used in the experiment.
# Before the start of the experiment on the day, the mice were evaluated for baseline blood glucose at about 9:30 a.m. and weighed. […]
# The GLP-1 derivatives were dissolved in the vehicle to an administration concentration of 20 μg/mL, and the administration volume was 5 mL/kg (i.e., 50 μL/10 g body weight). […] The tail of each mouse was cleaned with an alcohol cotton ball, and blood drops were collected from the tail using a disposable blood collection needle and measured with a glucometer and accompanying testing strips (Roche). Food intake and body weight of each mouse were measured at 24 h, 48 h and 72 h after the administration. […]
# Kkay mice = assay: Long-term pharmacodynamic study on Kkay mice (Example 17); assay type: in vivo; settings: s.c. 100 and 300 μg/kg; dulaglutide 600 μg/kg; FIGS. 9a-9b
# Procedure: Before the start of the experiment on the day, the mice were evaluated for baseline blood glucose at about 9:00 a.m. and weighed. […] The vehicle contained 14 mg/mL propylene glycol, 5.5 mg/mL phenol and 1.133 mg/mL disodium hydrogen phosphate, with a pH value of 7.4.
# (time 0) at back of the neck once every 2 days for 16 consecutive times, the blood glucose of the mice was evaluated 3 h, 6 h, 1 day and 2 days after the first administration, and HbA1c was detected in an EDTA anticoagulation tube 48 h after the last administration.
# T1 sequence (P43220 24-463): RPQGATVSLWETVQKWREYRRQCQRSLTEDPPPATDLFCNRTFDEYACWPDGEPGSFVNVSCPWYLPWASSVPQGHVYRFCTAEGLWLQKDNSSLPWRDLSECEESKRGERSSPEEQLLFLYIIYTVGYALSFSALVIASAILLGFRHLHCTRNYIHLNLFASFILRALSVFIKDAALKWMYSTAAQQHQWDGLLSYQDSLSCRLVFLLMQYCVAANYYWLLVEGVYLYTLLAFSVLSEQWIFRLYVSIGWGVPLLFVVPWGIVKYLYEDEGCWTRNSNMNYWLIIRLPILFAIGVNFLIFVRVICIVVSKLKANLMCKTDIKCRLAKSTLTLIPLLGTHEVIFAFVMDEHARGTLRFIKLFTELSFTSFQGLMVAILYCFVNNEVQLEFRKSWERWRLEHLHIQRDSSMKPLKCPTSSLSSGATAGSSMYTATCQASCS
Substance,Ratio [(IC50/nM) high-concentration HSA]/[(IC50/nM) low-concentration HSA] (human GLP-1 receptor),"control of food intake and water intake compared to semaglutide (db/db mice [1]; db/db mice, FIGS. 7c-7d)","hypoglycemic effect on db/db mice compared to semaglutide (db/db mice [1]; same dose, FIGS. 7a-7b)",effective duration of action of hypoglycemic effect on db/db mice compared to semaglutide (db/db mice [2]),hypoglycemic effect on db/db mice compared to semaglutide (db/db mice [2]; FIGS. 2a-2b),hypoglycemic effect on Kkay mice compared to dulaglutide (Kkay mice)
semaglutide,813,–,–,–,–,–
"N-ε^26-[2-(2-[2-(4-[19-carboxynonadecanoylamino]-4(S)-carboxybutanoylamino)ethoxy]ethoxy)acetyl][Gly8, Arg34]GLP-1-(7-37) Peptide [Compound 2]",–,its effect is superior to semaglutide,superior hypoglycemic effect,longer than that of semaglutide,superior hypoglycemic effect to semaglutide,significantly superior hypoglycemic effect on Kkay mice to dulaglutide

# Source: US12703731B2, “Long-acting GLP-1 compound” (Gan & Lee Pharmaceuticals Co., Ltd., priority 2019, dated 2026)
